Experimental findings from paper PMC5498006 (Biochemistry, 2016) are described below.

For the assay, the target named is T1, CCL21 (CC chemokine ligand 21), truncated (Homo sapiens, UniProt O00585).
T1 sequence (O00585 24-102): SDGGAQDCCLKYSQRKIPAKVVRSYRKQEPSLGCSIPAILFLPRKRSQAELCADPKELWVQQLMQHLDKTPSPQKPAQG
The assay can be described thus: 2D 1H-15N HSQC NMR titration. It counts as binding.

`N[C@@H](Cc1ccc(OS(=O)(=O)O)cc1)C(=O)O` [sY, sulfotyrosine]: the dissociation constant Kd was around 38.9 mM.

As usually defined, the Kd is the concentration at which binding is half-saturated. Higher therefore signals a looser complex.
